According to ChEMBL document CHEMBL3507680, “University of Dundee, Gates Library screen for HepG2 cell viability”:

Assay: Human HepG2 cell viability assay in 384 well format
Assay type: toxicity, cell-based
Set-up: dose 125 nL, time 70.5 hour; concentration not given beside the values
Settings: HepG2 cells, read-out: Inhibition

Compound	cytotoxicity at 70.5 h
COc1ccc(OC)c(C2CCN(C(=O)C3CCOCC3)C2)c1 (stereo unspecified)	-6.78%
Cc1cc(F)ccc1OC1(C(=O)O)CCN(Cc2c[nH]cn2)CC1	-4.85%
CCC[C@H]1CN(Cc2ccc(N(C)C)nc2)C[C@@H]1NC(=O)CSC	-6.28%
COCCC(=O)N1CCCC2(CCC(=O)N(CCc3c[nH]cn3)C2)C1 (stereo unspecified)	-5.35%
CCOc1cccc(C(=O)N2C[C@H]3CC[C@@H]2CN(C(=O)C2CCC2)C3)c1	23.1%
CCOC(=O)CNC(=O)N1CCCC(CNC(=O)c2ccco2)C1 (stereo unspecified)	-1.85%
CCC(=O)Nc1cccc(OCC(=O)N(C)Cc2nc(C)c[nH]2)c1	-4.8%
COc1ccc(C(=O)C2CCCN(CCc3ccccc3)C2)c(OC)c1 (stereo unspecified)	18.4%
CS(=O)(=O)N1CCC(Oc2ccc(C(=O)NCC3CCC3)cc2Cl)CC1	-12.8%
O=C(O)CSc1nnc(-c2cn[nH]c2)n1-c1ccccc1C(F)(F)F	-3.6%
CC[C@@H](NC(C)=O)C(=O)NCc1cccnc1Oc1ccccc1OC	8.31%
COc1ccc(F)c(-c2nccn2CCN2CCCC2)c1	33.7%
Cc1ccnc(NCC2(N(C)C)CCOCC2)n1	-2.1%
COc1cc(C)cc(C(C(=O)O)N2CCN(C3CCCC3)CC2)c1OC (stereo unspecified)	-2.66%
Cc1ccccc1N1CCN(C(=O)Cc2ccc3c(c2)OCO3)CC1=O	-2.79%
CC(C)(O)CCc1cccc(C(=O)N2CCC3(CCO3)CC2)c1	-1.91%
O=C(N[C@@H]1CCN(Cc2ccc(F)cc2F)C[C@H]1O)c1cccnc1	8.03%
CCc1nc2c(c(N(C)Cc3nncn3CCOC)n1)CCNCC2	-8.26%
Cn1cc(CNCC2(O)CCCN(Cc3ccc(F)c(F)c3)C2=O)cn1 (stereo unspecified)	-3.67%
CNCc1n[nH]c(=O)n1-c1ccccc1Oc1ccccc1	1.39%
CCS(=O)(=O)c1ncc(CN(C)CCc2ccccn2)n1CCOC	-8.19%
Cc1noc(C)c1CN(C)c1ncnc2onc(C)c12	9.42%
COC(=O)CC1CCN(C(=O)Nc2ccc(-c3ccn[nH]3)cc2)C1 (stereo unspecified)	1.65%

Compound	cytotoxicity at 70.5 h
CCC1CN(C(=O)c2csc3nc(-c4ccc(Cl)cc4)cn23)CCN1 (stereo unspecified)	-12.3%
Cc1c(CN2CC[C@@H](N3CCC(O)CC3)[C@H](O)C2)[nH]c2ccc(Cl)cc12	-0.941%
COc1c(C)cnc(CN(C)C2CCOC3(CCOCC3)C2)c1C (stereo unspecified)	-19.1%
CC(=O)NCc1cc2n(n1)CCN(Cc1cccc(Cl)c1F)C2	36.9%
CNc1nc(C(=O)N2C[C@@H]3CCN(C)[C@@H]3C2)cs1	-3.23%
CCn1c(C2CCCNC2)nn(Cc2ccc(C(=O)NC)o2)c1=O (stereo unspecified)	-3.04%
Cc1nc(CC(=O)N2CCCC[C@H](N(C)C)C2)cs1	-7.83%
Cc1nccn1-c1ccc(N2CCC(NC(C)CC(C)C)CC2)cc1 (stereo unspecified)	10.6%
CCn1nc(C)c(CN(CCOC)C(=O)c2cnc(C)nc2O)c1C	-6.8%
CN(C)c1cncc(-c2ccnc3c2ccn3C)n1	-0.942%
Cc1ccc(OC2(C(=O)O)CCN(C/C=C/c3ccco3)CC2)cc1	-7.6%
COc1ccc(C(=O)O)cc1-c1cccc2c1CCNC2	-11.6%
COc1ccc2[nH]nc(CN3CCC(C(C)N(C)C)CC3)c2c1 (stereo unspecified)	1.23%
Cc1ncnc(NCC(C)N(C)c2ccccc2)c1C (stereo unspecified)	29.1%
CCC[C@@H]1CN(Cc2ccc3c(c2)OCCO3)C[C@H]1C(=O)O	-0.0956%
CC(C)NS(=O)(=O)c1cc(C(=O)O)cc(-n2cc3c(n2)CCC3)c1	-0.272%
O=C1CCCN1CCc1noc(-c2ccc(Cl)cc2)n1	-10.6%
O=C(CCc1cc2n(n1)CCCNC2)N1CCC(N2CCOC2=O)CC1	-3.48%
O=C(N[C@H]1COC[C@@H]1N1CCCC1)c1csc(Cc2ccccc2)n1	-14.1%
Cc1cc(C)n(C2CN(C(=O)Cn3c(C)cc(=O)c4ccccc43)C2)n1	-5.3%
O=C1CCC2(CCCN(c3ncc(Cl)cc3F)C2)CN1CC1CC1 (stereo unspecified)	-1.6%
CCSc1ccc(C(=O)N2CC[C@](C)(O)[C@H](C)C2)s1	-10.1%
C[C@@H]1CN(C(=O)c2cc(Cn3ccc4ccccc43)[nH]n2)C[C@H](C)O1	26.1%

Compound	cytotoxicity at 70.5 h
COc1ccccc1C1CNC(=O)c2nc(-c3c(C)n[nH]c3C)[nH]c2C1 (stereo unspecified)	-4.74%
CN(C)S(=O)(=O)NCc1nc(-c2cccc(F)c2)c(-c2ccccn2)[nH]1	-0.435%
CC(=O)N1CCC(C(=O)N2CCOC(CC3CCCCC3)C2)CC1 (stereo unspecified)	24.3%
CC(O)c1cn(C2CCN(C(=O)C3(C)CCCCC3)CC2)nn1 (stereo unspecified)	14.9%
COc1ccc(CCN)cc1-c1ccc(O)cc1	-13.9%
CC(C)(O)CCc1cccc(C(=O)NCc2nccs2)c1	3.29%
Nc1ncc(C(=O)N2CCCC(N)CC2)c(-c2ccccc2)n1 (stereo unspecified)	7.49%
CCOC(=O)C1(Cc2ccc(Cl)cc2)CCN(Cc2ncc[nH]2)CC1	-10.4%
Oc1cccc(CN2C[C@H]3CC[C@@H]2CN(Cc2cccnc2)C3)c1	3.01%
CCN(Cc1ccc(C(C)=O)cc1)CC1CCOCC1	20.6%
Cc1nc(N2CCCC2)nc(N2CCC(O)(C(=O)O)CC2)c1C	23.8%
CC(C)=CCN1CCC2(CC1)CC(=O)N(Cc1cc(F)cc(F)c1)C2	2.51%
Cc1cc(N2CCCC(O)(CN(C)C)C2)c2cc3c(cc2n1)OCO3 (stereo unspecified)	0.76%
CC(=O)N[C@@H]1CN(Cc2ccccc2C(=O)O)C[C@H]1C(C)C	0.633%
Cc1nc(O)cc(C2CCN(C(=O)c3ccsc3)CC2)n1	-5.48%
CCc1ncc(CNCc2cccnc2N(C)C)cn1	-12.1%
CC[C@@H](c1ccccc1)n1c(C2CC2)n[nH]c1=O	-13%
CCN(CC1CCOCC1)C(=O)CCNC(=O)c1ccccc1F	-23.5%
CN1CCCN(C(=O)c2cnc(C(C)(C)C)nc2O)CC1	0.369%
CC(C1CCN(Cc2c(Cl)cncc2Cl)CC1)N1CCOCC1 (stereo unspecified)	-5.73%
CCCc1cc(NCc2noc(COC)n2)n2nccc2n1	-4.21%
Cc1cc(N2CCC3(CCCN(CCO)C3=O)C2)nc2cc(Cl)ccc12 (stereo unspecified)	-19.8%
O=C(c1coc(COc2ccccc2F)n1)N1CCCO1	-6.81%

Compound	cytotoxicity at 70.5 h
Cc1ocnc1C(=O)N1CC[C@@]2(O)CCN(C(=O)N3CCCC3)C[C@H]2C1	-4.39%
CC(C)[C@@H]1CN(S(=O)(=O)c2cccc(C(=O)O)c2)C[C@H]1N(C)C	17.4%
CN1CC2(CCN(C(=O)c3ccc4nccnc4c3)CC2)CC1=O	-4.39%
Fc1ccc(OC2CCN(CCn3cncn3)CC2)cc1	-9.54%
CN(C)c1nc2c(c(=O)[nH]1)CCN(C(=O)c1c[nH]c(=O)c(Cl)c1)C2	-0.451%
CCn1c(C)nnc1SCCNC(=O)CC1CCc2ccccc21 (stereo unspecified)	-18.5%
c1ccc2c(CC3CN(Cc4nccs4)CCO3)cccc2c1 (stereo unspecified)	-0.398%
O=C1CC(c2ccc3ccccc3n2)c2c(n[nH]c2C2CCC2)N1 (stereo unspecified)	19.5%
CCCc1cc(N2CCC(NC3CCS(=O)(=O)C3)CC2)nc(C)n1 (stereo unspecified)	-4.65%
c1cncc(CN(CCCn2ccnc2)CC2CCOC2)c1 (stereo unspecified)	-1.27%
CC(C)n1cnnc1CN(C)C(=O)c1cc(COc2ccccc2)[nH]n1	2.63%
CCn1nc(C)c(NC(=O)CN2CCN(C(C)=O)CC2)c1C	-10.9%
COCc1ncn(Cc2nc(-c3ccco3)oc2C)n1	6.06%
CCCN1CC2(CCN(C)CC2)CC1C(=O)NCCn1ccc(C)n1 (stereo unspecified)	-1.37%
Nc1nc(Cn2ccnc2-c2cc(CN3CCCC3)cs2)cs1	3.17%
CCN(CC)S(=O)(=O)c1ccc(NC(=O)C(C)(C)C)cc1	-4.91%
CCc1ccc2nc(NCCOCCO)cc(C)c2c1	-2.24%
CCN(CC)C(CNCc1ccc(OC)c(F)c1)c1ccco1 (stereo unspecified)	54.9%
CCN(Cc1cnc(NCc2ccccc2)nc1)C1CCS(=O)(=O)C1 (stereo unspecified)	-7.52%
COc1ccc([C@@H]2CN(C(=O)CCc3cc(Cl)no3)C[C@H]2N(C)C)cc1	4%
CCC(C)Sc1ncc(-c2c(C#N)c(N)nc3c2COCC3)cn1 (stereo unspecified)	6.03%
COCc1noc(CN2CCC3(CC2)[C@H](O)C[C@@H]3OC)n1	-5.38%
CN(Cc1cc(-c2ccncc2)no1)Cc1nccn1C	10.3%

Compound	cytotoxicity at 70.5 h
CN1CCN(C2CCOCC2)CC12CCC(=O)N(CC1CC1)CC2 (stereo unspecified)	-6.33%
O=C(c1ccon1)N1CCCCC1c1nc2cc(F)ccc2[nH]1 (stereo unspecified)	-5.01%
Cc1nn(CCO)cc1CN1CCC(C(C)N2CCCC2)CC1 (stereo unspecified)	-3.99%
CN1CC2(CCN(C(=O)c3ccc4c(=O)n(C)cnc4c3)C2)OC1=O (stereo unspecified)	8.11%
Cc1ccc(OC2CCN(CCn3cncn3)CC2)cc1	-10.7%
O=C1CN(CC[C@@H](O)c2ccccc2)CCN1c1ccccc1Cl	-7.1%
COCCN(Cc1cnn(C)c1)C(=O)C1CCC(=O)N(C2CCCC2)C1 (stereo unspecified)	-15%
Cc1nn(C)c(C)c1C(C(=O)O)N1CC=C(c2ccccc2)CC1 (stereo unspecified)	10.9%
COCCN1CCN(c2ncnc3nc(C)cc(C)c23)CC1	-7.61%
CSc1ccc(CN(C(=O)c2cc(C)[nH]c(=O)c2)C2CC2)cc1	0.291%
CCSCCNc1nc(-c2ccccn2)nc2c1c(C)nn2C	2.98%
CCOC(=O)CC(NC(=O)c1cn(Cc2ccccc2F)nn1)C(C)C (stereo unspecified)	-9.35%
CC(=O)c1cn(CC(=O)N2CCCC(O)(CO)C2)c2ccccc12 (stereo unspecified)	28%
COCCN(C/C=C/c1ccccc1)Cc1nccs1	2.82%
Cc1ccc(C(=O)N2CCC3(CCC(=O)N(CC(N)=O)C3)CC2)cc1	-8.05%
Cc1cnc2c(C(=O)N(C)Cc3cc(C4CC4)[nH]n3)cnn2c1	31.8%
COc1ccc(-c2ccc(C(=O)N3CCOCC3CC(=O)O)o2)cc1 (stereo unspecified)	-3.78%
CCCN1CCN(Cc2cc(Cl)cc(Cl)c2)[C@H]2CS(=O)(=O)C[C@H]21	10.3%
OC1(CN2CCCCC2)CCN(c2nccc(C(F)(F)F)n2)C1 (stereo unspecified)	18.4%
